# Patent US20210299109A1, “AGENTS FOR TREATING CANCER AND METHODS FOR IDENTIFYING SAID AGENTS” (MINERVA BIOTECHNOLOGIES CORPORATION, priority 2017, published 2021)
# How the values were obtained:
# naïve stem cells = assay: RT-PCR of differentiation markers and super-enhancer target genes in naïve stem cells; type: cell-based, human
# Source text: The genes whose expression increased as a result of treatment with the compounds of the invention, in a concentration dependent manner, are fibronectin and vimentin, which both increase as stem cells initiate differentiation and NF1, which is one of the first genes to increase when stem cells begin to differentiate down the neural lineage. […] Thus, compounds of the invention that induce markers of differentiation are useful for the treatment of cancers, because cancer cells, by definition, have de-differentiated, which allows them to continually self-replicate. […] Expression of metastatic marker E-cadherin was reduced and expression of differentiation markers fibronectin, vimentin and NF1 were increased. Novel compounds of the invention are highly specific. […] Although we discovered that NME1 dimers, NME7AB and NME7-X1 are all activating ligands of the MUC1* growth factor receptor and they bind to its extracellular domain, we have developed ample evidence that both NME7AB and NME7-X1 have other binding partners and can exert oncogenic effects, independent of MUC1*.
# We first used RT-PCR to measure expression of these super-enhancer target genes and other genes of interest in naïve stem cells in the presence or absence of a few compounds of the invention. […] We also measured expression of microRNA-145, in response to treatment with compounds of the invention. […]
# [1] = tested on: MUC1* positive cancer cells; conditions: in vitro; cited from earlier work
# [2] = tested on: human naïve state stem cells; assay: stem cell drug screen on naïve state stem cells; type: cell-based; conditions: for effect on naïve stem cells: pluripotency, growth, differentiation (first panel, FIG. 2, 7-10): 6 uM, 3 days, with or without NME7AB
# Method: (§1) The stem cell screening assay, was performed in both the presence and absence of the stem cell growth factors: NME7AB for growing naïve stem cells or FGF for growing primed stem cells. If the cognate growth factor was present, then the biological or small molecule would have to compete away the growth factor to get an effect. Therefore, we expected to see more of an effect when the growth factor, FGF for primed stem cells or NME7AB or NME1 dimers for naïve stem cells, was absent. The effect of the compounds on stem cells was visually determined and compounds were ranked 0-4, with 4 being the greatest effect and 0 being no observable effect. The major effect that was observed was a change from pluripotent stem cell morphology, which is a cobblestone pattern of small round cells with a large nucleus to cytoplasm ratio, to that of differentiating stem cells, which are elongated, large and flattened cells with a smaller nucleus to cytoplasm ratio. […] […] In this particular case, the naïve state stem cells were maintained in a naïve state by culturing in a media containing NME7AB or NME1 dimers. However, other methods such as 2i and 5i (Silva et al., 2008, Nichols and Smith, 2009, Theunissen et al., 2014)] can be used to maintain stem cells in a more naïve state. In this case primed state stem cells were cultured in bFGF over a layer of MEFs, although it is known that any bFGF containing media will maintain stem cells in the primed state.
# Percent inhibition of cancer cell migration was performed in a wound healing assay. The percent area that the invading cancer cells occupied, in the presence of a drug candidate compared to the controls, was quantified by Image J cell software which enables cell counting from photographs. IC50's were calculated by performing migration experiments at several compound concentrations and then applying Hill's equation. Inhibition of cancer cell proliferation was quantified by automated cell counting in the presence or absence of a drug candidate. Here, the inhibition of cancer cell proliferation was scored 1 if proliferation was inhibited by 25%, 2 if inhibited by 50%, 3 for 75% and 4 for the highest degree of inhibition of proliferation, and 0 for the lowest. The effect of the drug candidates on stem cell pluripotency or proliferation was scored by eye, based on cell morphology and cell density, with 0 being no change in morphology or cell number and 4 being the most profound effect, with the stem cells taking on the morphology of a differentiating cell, along with much fewer cells indicative of inhibition of proliferation. As an example, FIGS. 30A-30F show photographs of naïve stem cell, primed stem cell and fibroblast controls. FIGS. 31A-31F show the effect of compounds of the invention on naïve state stem cells, where the number of ‘+’ signs indicates the score from 0-4 of ability of compound to inhibit pluripotency, proliferation of naïve stem cells or ability to induce their differentiation. […] FIGS. 36-44 and 65-87 show photographs and IC50 graphs of the compounds of the invention, inhibiting cancer cell migration and invasion. Cancer cell migration is a hallmark of metastatic cancer.
# Stem cells whether embryonic or induced pluripotent stem (iPS) cells were cultured in a minimal, serum-free media that contained human recombinant NME7AB at a concentration of 2-32 nM wherein 4-8 nM is preferred and 4 nM is more preferred. […]
# [3] = tested on: human primed state stem cells; assay: stem cell drug screen on primed state stem cells; type: cell-based
# Method: as §1
# Percent inhibition of cancer cell migration was performed in a wound healing assay. The percent area that the invading cancer cells occupied, in the presence of a drug candidate compared to the controls, was quantified by Image J cell software which enables cell counting from photographs. IC50's were calculated by performing migration experiments at several compound concentrations and then applying Hill's equation. Inhibition of cancer cell proliferation was quantified by automated cell counting in the presence or absence of a drug candidate. Here, the inhibition of cancer cell proliferation was scored 1 if proliferation was inhibited by 25%, 2 if inhibited by 50%, 3 for 75% and 4 for the highest degree of inhibition of proliferation, and 0 for the lowest. The effect of the drug candidates on stem cell pluripotency or proliferation was scored by eye, based on cell morphology and cell density, with 0 being no change in morphology or cell number and 4 being the most profound effect, with the stem cells taking on the morphology of a differentiating cell, along with much fewer cells indicative of inhibition of proliferation. As an example, FIGS. 30A-30F show photographs of naïve stem cell, primed stem cell and fibroblast controls. […]
# human fibroblasts = assay: effect on fibroblast proliferation (surrogate for normal cells); type: cell-based; conditions: 500 nM final concentration
# Source text: However, fibroblasts are more differentiated than stem cells but are able to self-replicate for defined periods of time. We tested selected compounds of the invention to determine if these compounds were just cytotoxic or if they selectively affected stem cells and, importantly, cancer cells, but not normal, healthy cells. Here, we used fibroblasts as a surrogate for normal cells. […] […] Each compound was scored for its effect on fibroblast proliferation where “+” indicates 25% inhibition of fibroblast growth, “++” 50% inhibition and “+++” 75% inhibition of growth.
# cancer cells = conditions: cited from earlier work
compound,measurement,setting,value
Cc1[nH]c(/C=C2\C(=O)Nc3ccc(S(=O)(=O)N(C)c4cccc(Cl)c4)cc32)c(C)c1C(=O)N1CCN(C)CC1 [SU11274],"up-regulation of markers of differentiation (fibronectin, vimentin, NF1) in naïve stem cells",naïve stem cells,did not cause up-regulation of markers of differentiation
COC(=O)c1ccc(C2c3[nH]c4ccccc4c3CCN2C(=O)c2cccc(Cl)c2)cc1 (centres unmarked) [MN0642],inhibition of growth of cancer cells,[1],inhibit the growth of cancer cells in vitro
same,"effect on naïve stem cells: pluripotency, growth, differentiation (first panel, FIG. 2, 7-10)",[2],induced differentiation
Cc1sc2c(c1C)C(c1ccc(Cl)cc1)=N[C@@H](CC(=O)OC(C)(C)C)c1nnc(C)n1-2 [JQ1(+)],"up-regulation of markers of differentiation (fibronectin, vimentin, NF1) in naïve stem cells",naïve stem cells,did not cause up-regulation of markers of differentiation
same,effect on primed stem cell growth,[3],not primed stem cell growth
same,effect on the size of primed stem cell colonies,"[3]; treated for 3 days, 500 nM or 1 uM",modest effect
same,induction of differentiation of primed state stem cells,"[3]; treated for 3 days, JQ1 at 500 nM or 1 uM, bFGF absent",None of these agents appeared to induce differentiation
same,effect on naïve stem cell growth,[2],inhibitory effect
same,induction of differentiation and growth inhibition of naïve state stem cells,"[2]; 500 nM or 1 uM, cells cultured in NME7AB or NME1 dimers",dramatically induced differentiation
same,effect on fibroblasts,human fibroblasts,same effect on fibroblasts as it does on primed state stem cells
"FLR peptide: synthetic peptide corresponding to the extracellular domain of MUC1*, FLR also known as PSMGFR (SEQ ID NO:3) (GTINVHDVETQFNQYKTEAASRYNLTISDVSVSDVPFPFSAQSGA; the extracellular domain of Native Primary Sequence of the MUC1 Growth Factor Receptor (nat-PSMGFR - an example of “PSMGFR”))","effect on naïve stem cells: pluripotency, growth, differentiation (first panel, FIG. 2, 7-10)",[2],induced differentiation
same,inhibition of the transition of regular cancer cells to metastatic cancer cells,cancer cells,inhibit the transition of regular cancer cells to metastatic cancer cells
CCCCNC(=O)N1CCc2c([nH]c3ccccc23)C1C(C)c1ccccc1 (centres unmarked) [MN1130],"effect on primed stem cells (first panel, FIG. 2-6)","[3]; 6 uM, 3 days, with or without FGF",modest effect
same,"effect on naïve stem cells: pluripotency, growth, differentiation (first panel, FIG. 2, 7-10)",[2],induced differentiation
